# Data: article PMC9602571, “Discovery of a Dual SENP1 and SENP2 Inhibitor” (International Journal of Molecular Sciences, 2022)
# Columns and labels:
# Ataxin-3 = biological target: T1, Ataxin-3 (Homo sapiens, UniProt P54252); assay: Ataxin-3 activity assay, Ubiquitin-AMC substrate; format: biochemical; settings: n = 2
# T1 construct: purchased BPS 80399
# Experimental: (§1) IC50 measurements were conducted at Reaction Biology Corporation, Malvern, PA, USA, with two replications using 10 concentrations starting at 200 μM with three-fold dilution. Curve fits were performed where the enzyme activities at the highest concentration of compounds were less than 65%. UCHL1 II was used as a control inhibitor. The procedure was performed analogous to the fluorogenic SENP2 assay described in 3.3.2. using the Ataxin-3 enzyme (BPS Cat# 80399) and Ubiquitin-AMC substrate (Enzo Cat# BML-SE211-0025). The final reaction conditions contained 500 nM Ataxin-3 and 100 nM Ubiquitin-AMC.
# UCHL1 = biological target: T2, UCHL1 (Homo sapiens, UniProt P09936); assay: UCHL1 activity assay, Ubiquitin-AMC substrate; format: biochemical; settings: n = 2
# T2 construct: purchased SignalChem U22-30H
# T2 sequence (P09936 1-223): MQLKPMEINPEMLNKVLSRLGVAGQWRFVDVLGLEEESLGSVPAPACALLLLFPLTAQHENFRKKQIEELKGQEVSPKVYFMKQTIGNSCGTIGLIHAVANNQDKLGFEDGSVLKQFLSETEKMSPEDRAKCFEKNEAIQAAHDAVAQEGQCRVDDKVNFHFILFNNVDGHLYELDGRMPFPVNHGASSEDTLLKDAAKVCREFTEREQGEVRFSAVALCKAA
# Experimental: as §1, with “UCHL1” for “Ataxin-3”, “(SignalChem” for “(BPS”, “U22-30H)” for “80399)”, “0.2” for “500”
# SENP2 = biological target: T3, SENP2 (Homo sapiens, UniProt Q9HC62); assay: Fluorogenic SENP2 assay, SUMO1-AMC substrate; format: biochemical; settings: n = 2
# T3 construct: Human recombinant catalytic domain expressed in E. coli; purchased Enzo BML-UW9765; host or cells: E. coli
# T3 sequence (Q9HC62 396-560 limits assumed): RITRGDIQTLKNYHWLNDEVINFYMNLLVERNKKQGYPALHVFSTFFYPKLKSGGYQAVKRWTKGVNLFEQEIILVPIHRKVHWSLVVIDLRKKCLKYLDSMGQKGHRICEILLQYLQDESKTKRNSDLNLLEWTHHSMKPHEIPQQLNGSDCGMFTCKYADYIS
# Experimental: The IC50 measurements were conducted at Reaction Biology Corporation, Malvern, PA, USA, with two replications using 10 concentrations starting at 200 μM with a three-fold dilution. Curve fits were performed where the enzyme activities at the highest concentration of compounds were less than 65%. UCH-L3 I was used as a control inhibitor. To SENP2 (Enzo Cat# BML-UW9765, Human recombinant catalytic domain expressed in E. coli.) in reaction buffer (50 mM HEPES, 150 mM NaCl, 0.5 mM EDTA, 1 mM DTT, pH 7.5, 0.01% CHAPS) was delivered the compound stock solution by acoustic technology (Echo550; nanoliter range) and subsequently incubated for 15 min at ambient temperature. The substrate SUMO1-AMC (R&D Systems Cat# UL-551-050, Lot# 07613314A, Fluorescence labeled full-length SUMO1 protein) was delivered to the well-plate to initiate the reaction. The enzyme activities were monitored (Ex/Em = 355/460 nm) as a time-course measurement of the increase in fluorescence signal from SUMO1-AMC for 90 min at ambient temperature. The data were analyzed by taking the slope (signal/time) of linear portion of measurement. The slope was calculated using Excel and the curve fits were performed using GraphPad Prism7 with a four-parameter least-squares fit. The final reaction conditions contained 0.015 nM SENP2 and 300 nM SUMO1/2 or 3-AMC.
# SENP1 [1] = biological target: T4, SENP1 (Homo sapiens, UniProt Q9P0U3); assay: Fluorogenic SENP1 assay, SUMO1-AMC substrate; format: biochemical; settings: for IC50: SUMO1-AMC 300 nM, 0.02 nM SENP1, interval in parentheses, read-out: IC50 SENP1; for LE (ligand efficiency): calculated: 1.4(-logIC50)/N
# T4 construct: Human recombinant, His6-SENP1 Catalytic Domain; His6 (N); purchased Boston Biochem (Bio-Techne AG) E-700
# T4 sequence (Q9P0U3 450-613 limits assumed): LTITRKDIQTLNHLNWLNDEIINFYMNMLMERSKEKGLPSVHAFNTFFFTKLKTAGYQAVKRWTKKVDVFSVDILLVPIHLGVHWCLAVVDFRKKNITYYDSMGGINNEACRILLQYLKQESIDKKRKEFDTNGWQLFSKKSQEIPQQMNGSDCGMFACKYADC
# Experimental: Human recombinant, His6-SENP1 Catalytic Domain (Boston Biochem Cat# E-700, Bio-Techne AG, Zug, Switzerland) was prepared in reaction buffer (50 mM HEPES, 150 mM NaCl, 0.5 mM EDTA, 1 mM DTT, pH 7.5, 0.01% CHAPS). To this solution, a 20 mM or 50 mM inhibitor stock solution in DMSO was added and the mixture was incubated for 15 min at ambient temperature. […] The slope was calculated using Excel and the curve fits were performed using GraphPad Prism7 with a four-parameter least-squares fit. The final reaction conditions contained 0.02 nM SENP1 and 300 nM SUMO1/2 or 3-AMC).
# SENP1 [2] = biological target: T4, SENP1; assay: Photo crosslinking experiments with SENP1; format: binding; settings: probe 200 µM, SENP1 10 µM, UV 30 min
# Experimental: A buffer exchange of the commercially available 6 × His-SENP1 Protein (Boston Biochem Cat# E-700) to a 50 mM HEPES, 150 mM NaCl; 0.5 mM EDTA, 1 mM DTT, pH 7.5 was performed. A total of 200 μM of the photo affinity probe 56 with or without competitor molecule 11 (400 μM) was incubated in 10 uM SENP1 for 30 min at 0 °C. Subsequently, the mixtures were irradiated in a Proma UV exposure unit equipped with four 8 Watt lamps (Hitachi FL8BL-8, ~350 nm) for 30 min at 0 °C. Then, 50 µL of the crosslinked proteins were mixed with freshly prepared click mix solution (50 μL; 1 mM CuSO4, 1 mM TCEP, 100 uM THPTA from a 5 mM DMSO stock, dissolved in Milli-Q Water) and a 10 mM stock solution of azide fluor 545 (1 μL) and incubated at 0 °C for 14 h. […] Protein samples for SDS-PAGE were first prepared in 1 × Laemmli sample buffer (diluted from 4 × Laemmli sample buffer (ROTI®Load), and subsequently denatured at 100 °C for 15 min. After SDS-PAGE gel electrophoresis separation, the fluorescence was visualized (Ex. 520 nm, Em. 575 nm) on the SDS PAGE gel using ImageQuant^TM 4000 LAS (GE Healthcare, Chicago, IL, USA). Secondly, the gels were stained with Bio-Safe Coomassie Brilliant Blue G-250 (BioRad) for 60 min. De-staining was performed with 40% (v/v) methanol, 10% (v/v) glacial acetic acid, 50% (v/v) Milli-Q water until protein bands became visible.
# SENP1 [3] = biological target: T4, SENP1; assay: Fluorogenic SENP1 assay, SUMO2-AMC substrate; format: biochemical; settings: n = 2
# Experimental: (§2) Human recombinant, His6-SENP1 Catalytic Domain (Boston Biochem Cat# E-700, Bio-Techne AG, Zug, Switzerland) was prepared in reaction buffer (50 mM HEPES, 150 mM NaCl, 0.5 mM EDTA, 1 mM DTT, pH 7.5, 0.01% CHAPS). To this solution, a 20 mM or 50 mM inhibitor stock solution in DMSO was added and the mixture was incubated for 15 min at ambient temperature. […] The data were analyzed by taking the slope (signal/time) of the linear portion of measurement. The slope was calculated using Excel and the curve fits were performed using GraphPad Prism7 with a four-parameter least-squares fit. The final reaction conditions contained 0.02 nM SENP1 and 300 nM SUMO1/2 or 3-AMC).
# SENP1 [4] = biological target: T4, SENP1; assay: Fluorogenic SENP1 assay, SUMO3-AMC substrate; format: biochemical; settings: n = 2
# Experimental: as §2
# T1 sequence (P54252 whole entry): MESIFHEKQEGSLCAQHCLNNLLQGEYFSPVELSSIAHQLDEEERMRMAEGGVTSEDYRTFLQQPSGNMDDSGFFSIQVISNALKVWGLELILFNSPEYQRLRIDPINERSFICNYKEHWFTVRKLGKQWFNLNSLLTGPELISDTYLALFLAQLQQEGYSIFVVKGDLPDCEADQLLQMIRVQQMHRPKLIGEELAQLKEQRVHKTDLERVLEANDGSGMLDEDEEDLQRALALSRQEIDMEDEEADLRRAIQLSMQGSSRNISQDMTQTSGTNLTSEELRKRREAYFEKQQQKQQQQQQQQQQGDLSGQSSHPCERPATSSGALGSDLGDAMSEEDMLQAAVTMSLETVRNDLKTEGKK
compound,measurement,setting,value
"O=C(COC(=O)c1ccc(NC(=O)c2cccc(OCc3ccccc3)c2)cc1)c1ccc(Cl)cc1 [Compound 7, reference compound]",IC50,Ataxin-3,> 100 µM
same,IC50,UCHL1,64 µM
same,IC50,SENP2,9.3 µM
"C#CCCC1(CCC(=O)N2c3ccccc3NC(=O)C23CCCC3)N=N1 [Compound 56, 1′-{3-[3-(But-3-yn-1-yl)-3H-diazirin-3-yl]propanoyl}-3′,4′-dihydro-1′H-spiro[cyclopentane-1,2′-quinoxalin]-3′-one]",IC50,SENP1 [1],24 µM
same,covalent labelling of SENP1 by photo probe (TAMRA-azide fluorescence),SENP1 [2],fluorescent band was visible
"O=C(Cn1nnc(-c2ccccc2)n1)N1c2cscc2NC(=O)C12CCCC2 [Compound 55, 1′-[2-(5-Phenyl-2H-1,2,3,4-tetrazol-2-yl)acetyl]-3′,4′-dihydro-1′H-spiro[cyclopentane-1,2′-thieno [3,4-b]pyrazin]-3′-one]",IC50,SENP1 [3],18 µM
same,melting point,,231 to 233 °C
same,IC50,Ataxin-3,> 100 µM
same,IC50,SENP1 [1],10 µM
same,IC50,UCHL1,132 µM
same,IC50,SENP1 [4],23 µM
same,IC50,SENP2,5.8 µM
"CC1(C)C(=O)Nc2ccccc2N1C(=O)Cn1nnc(-c2ccccc2)n1 [Compound 23, 3,3-Dimethyl-4-[2-(5-phenyl-2H-1,2,3,4-tetrazol-2-yl)acetyl]-1,2,3,4-tetrahydroquinoxalin-2-one]",melting point,,252 °C (dec.)
same,IC50,SENP1 [1],12.3 µM
same,reduced inhibition by a factor,SENP1 [1]; compared to hit compound 11,1.5
"COC(=O)c1ccc2c(c1)NC(=O)C1(CCCC1)N2 [Compound 40, Methyl 3′-oxo-3′,4′-dihydro-1′H-spiro[cyclopentane-1,2′-quinoxaline]-6′-carboxylate]",melting point,,246 to 250 °C (dec.)
same,IC50,SENP1 [1],202 µM
same,LE (ligand efficiency),SENP1 [1],0.28
"O=C1Nc2cc([N+](=O)[O-])ccc2NC12CCCC2 [Compound 41, 6′-Nitro-3′,4′-dihydro-1′H-spiro[cyclopentane-1,2′-quinoxalin]-3′-one]",melting point,,275 to 278 °C
same,IC50,SENP1 [1],67 µM
same,LE (ligand efficiency),SENP1 [1],0.34
